Measurements published in patent US12157730B2, “Heteroaryl derivative, method for producing same, and pharmaceutical composition comprising same as effective component” (VORONOI INC., priority 2019, dated 2024).

Molecular target: T1, Ba/F3 cell EGFR Exon20 ins NPH (Homo sapiens, UniProt P00533, INS773NPH)
T1 construct: expressed in transfected cells; host or cells: Ba/F3
Assay: Ba/F3 cell proliferation suppression, EGFR Exon20 ins NPH
Assay type: cell-based
Details: GI50 class; Ba/F3 cell line with NPH inserted at Exon20 of EGFR; 72 hours
Outline: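 Cells (3000–5000/well) plated 24 h before compound, 12-point 3-fold dilutions at 0.3 nM to 50 um final; Ba/F3 lines grown with 5 ng/ml IL-3. Viability by CellTiter-Glo luminescence after 72 h, growth ratio vs control, GI50 from curves; triplicate.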

Compound	Ba/F3 (NPH) Activity
C=CC(=O)Nc1cc(Nc2cc(N3OCC[C@@H]3c3cc(F)cc(F)c3)ncn2)c(OC)cc1N1CCC(N2CCO[C@H](C)C2)CC1 [compound 758, N-(5-((6-((R)-3-(3,5-difluorophenyl)isoxazolidine-2-yl)pyrimidine-4-yl)amino)-4-methoxy-2-(4-((R)-2-methylmorpholino)piperidine-1-yl)phenyl) acrylamide]	B (50 nM ≤ GI50 < 500 nM)
C=CC(=O)Nc1cc(Nc2cc(N3OCC[C@@H]3c3cccc(Cl)c3Cl)ncn2)c(OC)cc1N1CCN(CC)CC1 [compound 480, N-(5-((6-((R)-3-(2,3-dichlorophenyl)isoxazolidine-2-yl)pyrimidine-4-yl)amino)-2-(4-ethylpiperazine-1-yl)-4-methoxyphenyl) acrylamide]	A (GI50 < 50 nM)
C=CC(=O)Nc1cc(Nc2cc(N3OCC[C@@H]3c3ccc(Cl)c(F)c3)ncn2)c(OC)cc1N1C[C@@H]2C[C@H]1CO2 [compound 862, N-(2-((1S,4S)-2-oxa-5-azabicyclo [2.2.1]heptane-5-yl)-5-((6-((R)-3-(4-chloro-3-fluorophenyl)isoxazolidine-2-yl)pyrimidine-4-yl)amino)-4-methoxyphenyl) acrylamide]	A (GI50 < 50 nM)
C=CC(=O)Nc1cc(Nc2cc(N3OCC[C@@H]3c3cccc(F)c3)ncn2)c(OC)cc1N1CCC(N2C[C@@H]3C[C@H]2CO3)CC1 [Example 244, N-(2-(4-((1S,4S)-2-oxa-5-azabicyclo[2.2.1]heptane-5-yl)piperidine-1-yl)-5-((6-((R)-3-(3-fluorophenyl)isoxazolidine-2-yl)pyrimidine-4-yl)amino)-4-methoxyphenyl) acrylamide]	A (GI50 < 50 nM)
C=CC(=O)Nc1cc(Nc2cc(N3OCC[C@@H]3c3cc(F)ccc3F)ncn2)c(OC)cc1N1CCC(N2CCN(C)[C@@H](C)C2)CC1 [compound 850, N-(5-((6-((R)-3-(2,5-difluorophenyl)isoxazolidine-2-yl)pyrimidine-4-yl)amino)-2-(4-((S)-3,4-dimethylpiperazine-1-yl)piperidine-1-yl)-4-methoxyphenyl) acrylamide]	A (GI50 < 50 nM)
C=CC(=O)Nc1cc(Nc2cc(N3OCC[C@@H]3c3ccc(F)cc3F)ncn2)c(OC)cc1N1CCC(N2CCC(N3CCN(C)CC3)CC2)CC1 [compound 477, N-(5-((6-((R)-3-(2,4-difluorophenyl)isoxazolidine-2-yl)pyrimidine-4-yl)amino)-4-methoxy-2-(4-(4-methylpiperazine-1-yl)-[1,4'-bipiperidine]-1'-yl)phenyl)acrylamide]	A (GI50 < 50 nM)
C=CC(=O)Nc1cc(Nc2cc(N3OCC[C@@H]3c3cccc(Cl)c3F)ncn2)c(OC)cc1N1CCC(N2CCCN(C3CC3)CC2)CC1 [compound 358, N-(5-((6-((R)-3-(3-chloro-2-fluorophenyl)isoxazolidine-2-yl)pyrimidine-4-yl)amino)-2-(4-(4-cyclopropyl-1,4-diazepane-1-yl)piperidine-1-yl)-4-methoxyphenyl) acrylamide]	A (GI50 < 50 nM)
C=CC(=O)Nc1cc(Nc2cc(N3OCC[C@H]3Cc3ccccc3)ncn2)c(OC)cc1N1CCN(C2CCN(C)CC2)CC1 [compound 974, N-(5-((6-((R)-3-benzylisoxazolidine-2-yl)pyrimidine-4-yl)amino)-4-methoxy-2-(4-(1-methylpiperidine-4-yl)piperazine-1-yl)phenyl)acrylamide]	C (500 nM ≤ GI50 < 5000 nM)
C=CC(=O)Nc1cc(Nc2cc(N3OCC[C@@H]3c3ccc(Cl)c(Cl)c3)ncn2)c(OC)cc1N1C[C@@H]2C[C@H]1CO2 [compound 612, N-(2-((1S,4S)-2-oxa-5-azabicyclo[2.2.1]heptane-5-yl)-5-((6-((R)-3-(3,4-dichlorophenyl)isoxazolidine-2-yl)pyrimidine-4-l)amino)-4-methoxyphenyl) acrylamide]	A (GI50 < 50 nM)
C=CC(=O)Nc1cc(Nc2cc(N3OCC[C@@H]3c3ccc(F)cc3F)ncn2)c(OC)cc1N1C[C@H]2C[C@@H]1CO2 [compound 353, N-(2-((1R,4R)-2-oxa-5-azabicyclo[2.2.1]heptane-5-yl)-5-((6-((R)-3-(2,4-difluorophenyl)isoxazolidine-2-yl)pyrimidine-4-yl)amino)-4-methoxyphenyl) acrylamide]	A (GI50 < 50 nM)
C=CC(=O)Nc1cc(Nc2cc(N3OCC[C@@H]3c3cc(F)cc(Cl)c3)ncn2)c(OC)cc1N1CCC(N2C[C@H]3CCN(C)[C@H]3C2)CC1 [compound 539, N-(5-((6-((R)-3-(3-chloro-5-fluorophenyl)isoxazolidine-2-yl)pyrimidine-4-yl)amino)-4-methoxy-2-(4-((3aR,6aR)-1-methylhexahydropyrrolo [3,4-b]pyrrole-5(1H)-yl)piperidine-1-yl)phenyl)acrylamide]	A (GI50 < 50 nM)
C=CC(=O)Nc1cc(Nc2cc(N3OCC[C@@H]3c3ccc(F)c(Cl)c3F)ncn2)c(OC)cc1N(C)CCN(C)C [compound 603, N-(5-((6-((R)-3-(3-chloro-2,4-difluorophenyl)isoxazolidine-2-yl)pyrimidine-4-yl)amino)-2-((2-(dimethylamino)ethyl)(methyl)amino)-4-methoxyphenyl) acrylamide]	A (GI50 < 50 nM)
C=CC(=O)Nc1cc(Nc2cc(N3OCC[C@@H]3c3ccc(F)c(Cl)c3)ncn2)c(OC)cc1N1CCN(C)CC1 [compound 702, N-(5-((6-((R)-3-(3-chloro-4-fluorophenyl)isoxazolidine-2-yl)pyrimidine-4-yl)amino)-4-methoxy-2-(4-methylpiperazine-1-yl)phenyl)acrylamide]	A (GI50 < 50 nM)
C=CC(=O)Nc1cc(Nc2cc(N3OCC[C@@H]3c3ccc(F)cc3)ncn2)c(OC)cc1N1CCC(N2C[C@@H](C)O[C@@H](C)C2)CC1 [compound 814, N-(2-(4-((2S,6R)-2,6-dimethylmorpholino)piperidine-1-yl)-5-((6-((R)-3-(4-fluorophenyl)isoxazolidine-2-yl)pyrimidine-4-yl)amino)-4-methoxyphenyl) acrylamide]	A (GI50 < 50 nM)
C=CC(=O)Nc1cc(Nc2cc(N3OCC[C@@H]3c3ccc(F)c(F)c3F)ncn2)c(OC)cc1N1CCC(N2CCN(C3CC3)CC2)CC1 [Example 170, N-(2-(4-(4-cyclopropylpiperazine-1-yl)piperidine-1-yl)-4-methoxy-5-((6-((R)-3-(2,3,4-trifluorophenyl)isoxazolidine-2-yl)pyrimidine-4-yl)amino)phenyl)acrylamide]	A (GI50 < 50 nM)
C=CC(=O)Nc1cc(Nc2cc(N3OCC[C@@H]3c3ccc(F)cc3F)ncn2)c(OC)cc1N1CCC(N(C)CCN(C)C)CC1 [compound 422, N-(5-((6-((R)-3-(2,4-difluorophenyl)isoxazolidine-2-yl)pyrimidine-4-yl)amino)-2-(4-((2-(dimethylamino)ethyl)(methyl)amino)piperidine-1-yl)-4-methoxyphenyl) acrylamide]	A (GI50 < 50 nM)
C=CC(=O)Nc1cc(Nc2cc(N3OCC[C@@H]3c3ccc(F)cc3F)ncn2)c(OC)cc1N1CCC(N2C[C@H]3C[C@@H]2CN3C)CC1 [compound 473, N-(5-((6-((R)-3-(2,4-difluorophenyl)isoxazolidine-2-yl)pyrimidine-4-yl)amino)-4-methoxy-2-(4-((1R,4R)-5-methyl-2,5-diazabicyclo[2.2.1]heptane-2-yl)piperidine-1-yl)phenyl)acrylamide]	A (GI50 < 50 nM)
C=CC(=O)Nc1cc(Nc2cc(N3OCC[C@@H]3c3cccc(F)c3Cl)ncn2)c(OC)cc1N1CCC(N2CCN(C3COC3)CC2)CC1 [Example 201, N-(5-((6-((R)-3-(2-chloro-3-fluorophenyl)isoxazolidine-2-yl)pyrimidine-4-yl)amino)-4-methoxy-2-(4-(4-(oxetane-3-yl)piperazine-1-yl)piperidine-1-yl)phenyl)acrylamide]	A (GI50 < 50 nM)
C=CC(=O)Nc1cc(Nc2cc(N3OCC[C@@H]3c3ccc(F)c(Cl)c3F)ncn2)c(OC)cc1N1CCC(N2CCN(C(C)=O)CC2)CC1 [compound 636, N-(2-(4-(4-acetylpiperazine-1-yl)piperidine-1-yl)-5-((6-((R)-3-(3-chloro-2,4-difluorophenyl)isoxazolidine-2-yl)pyrimidine-4-yl)amino)-4-methoxyphenyl) acrylamide]	A (GI50 < 50 nM)
C=CC(=O)Nc1cc(Nc2cc(N3OCC[C@@H]3c3cccc(Cl)c3)ncn2)c(OC)cc1N1CCC(N2CCN(C(C)=O)CC2)CC1 [compound 471, N-(2-(4-(4-acetylpiperazine-1-yl)piperidine-1-yl)-5-((6-((R)-3-(3-chlorophenyl)isoxazolidine-2-yl)pyrimidine-4-yl)amino)-4-methoxyphenyl) acrylamide]	A (GI50 < 50 nM)
C=CC(=O)Nc1cc(Nc2cc(N3OCC[C@@H]3c3cc(F)cc(F)c3)ncn2)c(OC)cc1N1CCN(C)[C@@H](C)C1 [compound 916, N-(5-((6-((R)-3-(3,5-difluorophenyl)isoxazolidine-2-yl)pyrimidine-4-yl)amino)-2-((S)-3,4-dimethylpiperazine-1-yl)-4-methoxyphenyl) acrylamide]	A (GI50 < 50 nM)
C=CC(=O)Nc1cc(Nc2cc(N3OCC[C@@H]3c3ccc(Cl)cc3)ncn2)c(OC)cc1N1CCC(N(C)C)CC1 [compound 805, N-(5-((6-((R)-3-(4-chlorophenyl)isoxazolidine-2-yl)pyrimidine-4-yl)amino)-2-(4-(dimethylamino)piperidine-1-yl)-4-methoxyphenyl) acrylamide]	A (GI50 < 50 nM)
